Source: the NIST ThermoML archive (doi:10.1021/acs.jced.8b00011)
Where “and” joins values, the source holds several entries; their conditions need not be identical. Equal entries are not always repeated.

Conditions: Liquid; for mass density: Vibrating tube method; for electrical conductivity: electrochemical impedance spectroscopy

CCCCC[P+](CC)(CC)CC.O=S(=O)([N-]S(=O)(=O)C(F)(F)F)C(F)(F)F
Conditions	electrical conductivity	mass density
343.15 K, 45000 kPa	–	1298.89 kg/m3
343.15 K, 50000 kPa	–	1302.23 kg/m3
348.15 K, 101.33 kPa	0.885 S/m and 0.887 S/m	–
348.16 K, 101.33 kPa	0.877 S/m	–
353.15 K, 100 kPa	–	1256.32 kg/m3 [middle of 5 runs]
353.15 K, 101.33 kPa	0.999 S/m and 1 S/m	–
353.15 K, 1000 kPa	–	1256.5 kg/m3
353.15 K, 5000 kPa	–	1260.01 kg/m3
353.15 K, 10000 kPa	–	1264.27 kg/m3
353.15 K, 15000 kPa	–	1268.38 kg/m3
353.15 K, 20000 kPa	–	1272.39 kg/m3
353.15 K, 25000 kPa	–	1276.24 kg/m3
353.15 K, 30000 kPa	–	1280.04 kg/m3
353.15 K, 35000 kPa	–	1283.68 kg/m3
353.15 K, 40000 kPa	–	1287.28 kg/m3
353.15 K, 45000 kPa	–	1290.77 kg/m3
353.15 K, 50000 kPa	–	1294.22 kg/m3
363.15 K, 100 kPa	–	1248.72 kg/m3 [middle of 4 runs]

Conditions	electrical conductivity [S/m]	viscosity
348.14 K, 10700 kPa, Frequency=0 MHz	0.8	–
348.14 K, 225100 kPa, Frequency=0 MHz	0.167	–
348.15 K, 100 kPa, Falling or rolling sphere viscometry	–	13.81 mPa·s [middle of 7 runs]
348.15 K, 600 kPa, Falling or rolling sphere viscometry	–	13.91 mPa·s
348.15 K, 1100 kPa, Frequency=0 MHz	0.871	–
348.15 K, 1700 kPa, Frequency=0 MHz	0.865	–
348.15 K, 3100 kPa, Frequency=0 MHz	0.855	–
348.15 K, 5100 kPa, Frequency=0 MHz	0.84	–
348.15 K, 10500 kPa, Falling or rolling sphere viscometry	–	15.46 mPa·s
348.15 K, 15700 kPa, Frequency=0 MHz	0.766	–
348.15 K, 20600 kPa, Falling or rolling sphere viscometry	–	17.36 mPa·s
348.15 K, 20800 kPa, Frequency=0 MHz	0.734	–
348.15 K, 25700 kPa, Frequency=0 MHz	0.704	–
348.15 K, 30600 kPa, Falling or rolling sphere viscometry	–	18.78 mPa·s
348.15 K, 30800 kPa, Frequency=0 MHz	0.675	–
348.15 K, 40200 kPa, Frequency=0 MHz	0.625	–
348.15 K, 40700 kPa, Falling or rolling sphere viscometry	–	20.72 mPa·s
348.15 K, 50700 kPa, Falling or rolling sphere viscometry	–	22.73 mPa·s
348.15 K, 51400 kPa, Falling or rolling sphere viscometry	–	22.92 mPa·s
348.15 K, 60700 kPa, Falling or rolling sphere viscometry	–	25.33 mPa·s
348.15 K, 70400 kPa, Falling or rolling sphere viscometry	–	27.64 mPa·s
348.15 K, 76000 kPa, Frequency=0 MHz	0.473	–
348.15 K, 80600 kPa, Falling or rolling sphere viscometry	–	29.75 mPa·s
348.15 K, 89800 kPa, Falling or rolling sphere viscometry	–	32.25 mPa·s
348.15 K, 99100 kPa, Falling or rolling sphere viscometry	–	34.86 mPa·s
348.15 K, 100500 kPa, Falling or rolling sphere viscometry	–	35.04 mPa·s
348.15 K, 125700 kPa, Falling or rolling sphere viscometry	–	42.64 mPa·s
348.15 K, 126600 kPa, Falling or rolling sphere viscometry	–	43.88 mPa·s
348.15 K, 126600 kPa, Frequency=0 MHz	0.326	–
348.15 K, 150600 kPa, Falling or rolling sphere viscometry	–	52.08 mPa·s
348.15 K, 150800 kPa, Falling or rolling sphere viscometry	–	52.23 mPa·s
348.15 K, 152400 kPa, Frequency=0 MHz	0.272	–
348.15 K, 175600 kPa, Falling or rolling sphere viscometry	–	63.12 mPa·s
348.15 K, 199600 kPa, Falling or rolling sphere viscometry	–	75.5 mPa·s
348.15 K, 200900 kPa, Frequency=0 MHz	0.196	–
348.15 K, 237000 kPa, Falling or rolling sphere viscometry	–	99.1 mPa·s
348.15 K, 242900 kPa, Falling or rolling sphere viscometry	–	104.9 mPa·s
348.15 K, 250900 kPa, Frequency=0 MHz	0.141	–
348.16 K, 100 kPa, Frequency=0 MHz	0.877	–
348.16 K, 50000 kPa, Frequency=0 MHz	0.577	–
348.16 K, 103000 kPa, Frequency=0 MHz	0.384	–
348.16 K, 176100 kPa, Frequency=0 MHz	0.231	–
353.15 K, 100 kPa, Concentric cylinders viscometry	–	12.27 mPa·s
353.15 K, 100 kPa, Falling or rolling sphere viscometry	–	12 mPa·s and 11.96 mPa·s
363.15 K, 100 kPa, Concentric cylinders viscometry	–	9.672 mPa·s
363.15 K, 100 kPa, Falling or rolling sphere viscometry	–	9.358 mPa·s and 9.337 mPa·s and 9.414 mPa·s
363.15 K, 9700 kPa, Falling or rolling sphere viscometry	–	10.37 mPa·s
363.15 K, 20100 kPa, Falling or rolling sphere viscometry	–	11.57 mPa·s
363.15 K, 20500 kPa, Falling or rolling sphere viscometry	–	11.52 mPa·s
363.15 K, 30200 kPa, Falling or rolling sphere viscometry	–	12.72 mPa·s
363.15 K, 39200 kPa, Falling or rolling sphere viscometry	–	13.83 mPa·s
363.15 K, 49400 kPa, Falling or rolling sphere viscometry	–	15.21 mPa·s
363.15 K, 59100 kPa, Falling or rolling sphere viscometry	–	16.63 mPa·s
363.15 K, 80200 kPa, Falling or rolling sphere viscometry	–	19.84 mPa·s
363.15 K, 102200 kPa, Falling or rolling sphere viscometry	–	23.51 mPa·s
363.15 K, 102500 kPa, Falling or rolling sphere viscometry	–	23.47 mPa·s
363.15 K, 124000 kPa, Falling or rolling sphere viscometry	–	27.54 mPa·s
363.15 K, 125400 kPa, Falling or rolling sphere viscometry	–	27.86 mPa·s
363.15 K, 147300 kPa, Falling or rolling sphere viscometry	–	32.93 mPa·s
363.15 K, 149300 kPa, Falling or rolling sphere viscometry	–	33.43 mPa·s
363.15 K, 172900 kPa, Falling or rolling sphere viscometry	–	39.05 mPa·s
363.15 K, 200700 kPa, Falling or rolling sphere viscometry	–	47.56 mPa·s
363.15 K, 212300 kPa, Falling or rolling sphere viscometry	–	51.41 mPa·s
